Measurements as given in patent publication US7326540B2, “Methods for identifying compounds that modulate stabilization of secretase-associated proteins” (priority 2003, dated 2008).

Tests used:
[1] = tested on: γ-secretase complex proteins; test: γ-secretase complex protein levels by Western blot in A431 cells; assay type: cell-based, human; conditions: after 6 hours of STS treatment
Procedure: (§1) Chinese Hamster Ovary (CHO) cells expressing APP751 and BACE (CAB), CHO cells expressing full-length APP and wild-type PS1 (CHO-APP751/PS1) or expressing C99 and wild-type PS1 (CHO-CC99/PS1), H4 human neuroglioma cells expressing APP751 (H4-APP751), mouse embryonic fibroblast (MEF), embryonic stem (ES) cells, and human epithelial A431 cells were grown as described previously (Marambaud, P. et al., Embo J 21, 1948-56 (2002); Cai, H. et al., Nat Neurosci 4, 233-4 (2001); Sato, N. et al., Nat Cell Biol 2, 863-70 (2000); Puglielli, L., Ellis, B. C., Saunders, A. J. & Kovacs, D. M., J Biol Chem 278, 19777-83 (2003); Wolfe, M. S. et al., Nature 398, 513-7 (1999)). For the induction of apoptosis, we used staurosporine or etoposide (Calbiochem (EMD Biosciences, San Diego, Calif.)). For Aβ measurements, cells were seeded at the density of 0.5×10^6 cells per well in 6 well plates. After 48 hours, cells were treated with either STS (1 μM) for 6 hours. In order to inhibit caspase activation a sister plate of cells was pre-treated with zVAD ([…], Enzyme Systems Products) for 1 hour before STS treatment. For time-course experiments, cells were seeded at the density of 2×10^6 cells per 100 mm dish and treated with STS (1 μM) or etoposide (100 μg/mL). At different time points (0, 3, 6, 9, 12 and 24 hours), the cells were scraped, centrifuged and then lysed in buffer containing 1% NP40. […]

[2] = tested on: γ-secretase complex proteins; test: γ-secretase complex protein levels by Western blot in CHO cell lines; assay type: cell-based, Chinese Hamster
Procedure: as §1

[3] = tested on: β-secretase; test: C99 levels by Western blot (WO2) in CAB cells; assay type: cell-based, Chinese Hamster; conditions: STS-induced apoptosis, CHO cells expressing APP751 and BACE (CAB)
Procedure: as §1

## CN[C@@H]1C[C@H]2O[C@@](C)([C@@H]1OC)n1c3ccccc3c3c4c(c5c6ccccc6n2c5c31)C(=O)NC4 [STS, staurosporine]
[1]
  immature nicastrin levels increase: ~1.5 fold
  protein levels of PS1, Pen-2 and Aph1a: unchanged
[2]; STS treatment, CHO cells overexpressing APP751 and PS1WT and mouse fibroblasts
  nicastrin and Pen2 protein levels: up-regulated
[2]; six hours after STS treatment, CAB cells
  endogenous nicastrin protein levels: increase
[3]
  levels of C99: increased
